Experimental data taken from US20130177528A1, “COMPOSITIONS AND METHODS FOR INHIBITING VIRAL INFECTION” (WESTERN UNIVERSITY OF HEALTH SCIENCES, priority 2011, published 2013).

B1: ADAM15: ADAM15 (Ad15) polypeptide tested against HSV-1; exact construct not stated (protein, UniProt Q13444 207-863, looked up)
Disintegrin and …: DVVTETKTVELVIVADHSEAQKYRDFQHLLNRTLEVALLLDTFFRPLNVRVALVGLEAWTQRDLVEISPNPAVTLENFLHWRRAHLLPRLPHDSAQLVTGTSFSGPTVGMAIQNSICSPDFSGGVNMDHSTSILGVASSIAHELGHSLGLDHDLPGNSCPCPGPAPAKTCIMEASTDFLPGLNFSNCSRRALEKALLDGMGSCLFERLPSLPPMAAFCGNMFVEPGEQCDCGFLDDCVDPCCDSLTCQLRPGAQCASDGPCCQNCQLRPSGWQCRPTRGDCDLPEFCPGDSSQCPPDVSLGDGEPCAGGQAVCMHGRCASYAQQCQSLWGPGAQPAAPLCLQTANTRGNAFGSCGRNPSGSYVSCTPRDAICGQLQCQTGRTQPLLGSIRDLLWETIDVNGTELNCSWVHLDLGSDVAQPLLTLPGTACGPGLVCIDHRCQRVDLLGAQECRSKCHGHGVCDSNRHCYCEEGWAPPDCTTQLKATSSLTTGLLLSLLVLLVLVMLGASYWYRARLHQRLCQLKGPTCQYRAAQSGPSERPGPPQRALLARGTKQASALSFPAPPSRPLPPDPVSKRLQAELADRPNPPTRPLPADPVVRSPKSQGPAKPPPPRKPLPADPQGRCPSGDLPGPGAGIPPLVVPSRPAPPPPTVSSLYL

Assays:
[1] = system: β-galactosidase-expressing recombinant Adenovirus; experiment: Adenovirus infection of HeLa cells (Example 7); type: cell-based; conditions: similar experiments as for CN
Method: HeLa cells were infected with a β-galactosidase-expressing recombinant Adenovirus were pre-incubated with CN at (1) the dilution indicated in FIG. 11, panel A (stock concentration 22 nM) or (2) the concentrations indicated in FIG. 11, panel B, or mock treated with 1 X phosphate saline buffer for 90 min at room temperature. After 12 hr, the cells were washed, permeabilized and incubated with ONPG substrate (3.0 mg/ml) for quantitation of β-galactosidase activity expressed from the input viral genome. Positive (Pos) infected with virus alone; Negative (Neg) uninfected control. The enzymatic activity was measured at an optical density of 410 nm (OD 410).

HSV-1 (KOS) gL86 [2] = experiment: HSV-1 infection of HeLa cells at MOIs 5, 15 and 25 PFU/cell (Example 6); type: cell-based, herpes simplex virus type-1; conditions: virus pre-incubated 180 min, 6 hr
Method: HeLa cells were each grown to 100% confluency in 96-well plates. The β-galactosidase-expressing recombinant virus HSV-1 (KOS) HSV-1 gL86 […] was pre-incubated at MOIs of 5 (FIG. 10, panel A), 15 (FIG. 10, panel B) and 25 (FIG. 10, panel C) plaque-forming units per cell (PFU) with VCN (VN), CN or ADAM15 (Ad15) at the concentrations indicated or mock treated with 1 X phosphate saline buffer for 180 min at room temperature. After 6 hr, the cells were washed, permeabilized and incubated with ONPG substrate (3.0 mg/ml). The β-gal enzymatic activity was measured at an optical density of 410 nm (OD 410). Mock treated HSV-1 with PBS was used as a […] control ((+) infected with virus alone; (−) uninfected control).

HSV-1 (KOS) gL86 [3] = experiment: HSV-1 infection of HeLa, Vero and 293T cells, virus pre-incubated (Example 3); type: cell-based, herpes simplex virus type-1; conditions: HeLa cells; virus 30 pfu/cell pre-incubated 90 min; 6 hr
Method: CN blocks herpes simplex virus type-1 (HSV-1) infection of natural target cells. HeLa, Vero and 293T cells were each grown to 100% confluency in 96-well plates. The β-galactosidase-expressing recombinant virus HSV-1 (KOS) HSV-1 gL86 (30 pfu/cell) was pre-incubated with CN at the concentration indicated in FIG. 7 or mock treated with 1 X phosphate saline buffer for 90 min at room temperature. After 6 hr, the cells were washed, permeabilized and incubated with ONPG substrate (3.0 mg/ml). The β-gal enzymatic activity was measured at an optical density of 410 nm (OD 410). Each value shown in FIG. 7 is the mean of three or more determinations (±SD). Mock treated HSV-1 with PBS was used as a control. HSV-1 infection of HeLa (panel A) and Vero and 293T cells (panel B) was blocked by CN.

[4] = system: HSV-2 (333 gJ-reporter virus); experiment: HSV-2 infection of HeLa cells, ONPG assay (Example 4); type: cell-based; conditions: virus pre-incubated; starting concentration 1 mg/ml
Method: In this experiment different clinical strains of HSV-1 (F, G, and MP strains of HSV-1 [37] at 25 pfu/cell) were either pre-incubated with 1×PBS (control) or with CN at the concentrations indicated in FIG. 8, panel A for 90 min at room temperature. After 90 min of incubation the two pools of viruses were incubated with Nectin-1 receptor expressing CHO Igβ cells that express β-galactosidase upon viral entry as described. The viral infection blocking was measured by ONPG assay (FIG. 8, panel A). Similar experiment was conducted using Lac Z encoded HSV-2 (333 gJ-reporter virus). HSV-2 is a genital herpes virus. […] Each value shown is the mean of three or more determinations (±SD).

Row | Molecule | IC50 [1] [µM] | HSV-1 infection of HeLa cells, blocking and rank order (β-gal activity, OD 410) (HSV-1 (KOS) gL86 [2]) | HSV-1 infection (β-gal activity, OD 410) (HSV-1 (KOS) gL86 [3]) | HSV-2 infection of HeLa cells (dose response, ONPG assay) [4]
1 | vicrostatin [VCN] | 21 | blocked by CN >VCN >ADAM15 | blocked HSV-1 infection of HeLa cells | significantly inhibited HSV-2 infection
2 | B1 | – | blocked by CN >VCN >ADAM15 | – | –
